Values of other authors, collected in US11020355B2, “Method of encapsulating cannabinoids in phospholipid carriers” (NuVessl, Inc., priority 2018, dated 2021).
Like-named read-outs stand apart in the source and are kept apart here.

Experiments:
[1] = design: AUC (0-10.5 hours): unit not given beside the values; details: oromucosal, historic data
[2] = oral administration

In the case of `C=C(C)[C@@H]1CCC(C)=C[C@H]1c1c(O)cc(CCCCC)cc1O` [CBD, cannabidiol], the C max ([1]; 10 mg CBD) is given as 3.0 microgram per liter (nanogram per mL), the C max ([1]; 15 mg CBD) is given as 3.7 microgram per liter (nanogram per mL) and the “AUC (0-10.5 hours)” value ([1]; 5-15 mg CBD) is given as 4.1-12.6. For the same compound, the Tmax ([1]; 5-15 mg CBD) was 3.6 to 4.5 h and the bioavailability [2] was 6%-15%.
